What all share (assay type): biochemical
The target in one experiment is CDK6/CCND1 (Homo sapiens, UniProt Q00534). The experiment in a line: CDK6 homogeneous time-resolved fluorescence (HTRF) kinase assay. Particulars: CDK6/CCND, 1 mM ATP. In outline:
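Recombinant CDK6/CCND1 (1 nM final) was preincubated with compound for 20 min at 23 °C in HEPES buffer with MgCl2, EGTA, DTT and Tween 20. Kinase reaction then ran 60 min at 23 °C with 1 mM ATP and 50 nM ULight-4E-BP1 (Thr37/46) peptide, and was stopped with EDTA.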

The next experiment deals with CDK1/CCNB1 (Homo sapiens, UniProt P06493). The experiment in a line: CDK1 homogeneous time-resolved fluorescence (HTRF) kinase assay. The settings on record: CDK1/CCNB. In outline: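 Kinase activity is measured as Lance signal (665 nm, or 665/615 nm ratio) from europium-labelled anti-phospho-Thr37/46 antibody binding ULight-4E-BP1 peptide. Reactions contain 0.5 nM enzyme, 1 mM ATP, 1% DMSO and run 60 min at 23 °C before EDTA quench.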
CDK1/CCNB1, sequence (P06493 whole entry): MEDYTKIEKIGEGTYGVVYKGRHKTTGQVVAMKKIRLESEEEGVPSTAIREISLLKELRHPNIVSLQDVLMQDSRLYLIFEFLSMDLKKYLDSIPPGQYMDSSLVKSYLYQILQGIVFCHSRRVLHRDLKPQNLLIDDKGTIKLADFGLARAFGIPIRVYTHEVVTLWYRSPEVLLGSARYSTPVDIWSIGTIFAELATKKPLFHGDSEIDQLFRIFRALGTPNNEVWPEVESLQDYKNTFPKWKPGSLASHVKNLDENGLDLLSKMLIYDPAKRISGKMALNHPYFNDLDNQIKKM
CDK1/CCNB1, sequence (P14635 whole entry partner): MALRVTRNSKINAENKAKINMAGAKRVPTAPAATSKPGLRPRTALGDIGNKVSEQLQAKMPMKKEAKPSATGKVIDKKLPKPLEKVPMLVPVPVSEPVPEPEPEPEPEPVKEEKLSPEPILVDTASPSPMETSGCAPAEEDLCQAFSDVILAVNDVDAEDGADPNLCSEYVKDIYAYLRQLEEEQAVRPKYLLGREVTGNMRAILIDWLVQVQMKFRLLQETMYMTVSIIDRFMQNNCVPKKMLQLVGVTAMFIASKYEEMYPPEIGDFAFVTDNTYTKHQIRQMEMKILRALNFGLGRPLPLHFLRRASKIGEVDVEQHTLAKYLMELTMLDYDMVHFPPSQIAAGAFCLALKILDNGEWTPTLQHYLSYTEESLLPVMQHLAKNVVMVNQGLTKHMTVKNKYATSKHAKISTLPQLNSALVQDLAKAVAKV

A further experiment deals with CDK4/CCND3 (Homo sapiens, UniProt P11802). In words: CDK4 homogeneous time-resolved fluorescence (HTRF) kinase assay. Particulars: CDK4/CCND. In outline: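 IC50 values were derived from 11-point half-log dilutions, usually starting at 10 μM. Compound was first held for 20 min at 23 °C with 1.5 nM CDK4/CCND3. 1 mM ATP and 50 nM ULight-eIF4E-BP1 (Thr37/46) substrate were then added for 60 min, and the TR-FRET 665 nm signal was measured after EDTA stop and Eu-anti-phospho-4E-BP1 detection.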
CDK4/CCND3, sequence (P11802 whole entry): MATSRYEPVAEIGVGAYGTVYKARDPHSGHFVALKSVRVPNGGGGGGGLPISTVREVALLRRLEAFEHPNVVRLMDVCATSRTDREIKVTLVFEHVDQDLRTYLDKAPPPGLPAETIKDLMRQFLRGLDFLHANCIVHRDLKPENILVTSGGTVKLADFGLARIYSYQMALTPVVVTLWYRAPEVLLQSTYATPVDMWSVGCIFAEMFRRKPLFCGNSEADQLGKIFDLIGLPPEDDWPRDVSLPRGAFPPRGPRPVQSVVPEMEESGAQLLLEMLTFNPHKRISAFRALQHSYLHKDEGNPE
CDK4/CCND3, sequence (P30281 whole entry partner): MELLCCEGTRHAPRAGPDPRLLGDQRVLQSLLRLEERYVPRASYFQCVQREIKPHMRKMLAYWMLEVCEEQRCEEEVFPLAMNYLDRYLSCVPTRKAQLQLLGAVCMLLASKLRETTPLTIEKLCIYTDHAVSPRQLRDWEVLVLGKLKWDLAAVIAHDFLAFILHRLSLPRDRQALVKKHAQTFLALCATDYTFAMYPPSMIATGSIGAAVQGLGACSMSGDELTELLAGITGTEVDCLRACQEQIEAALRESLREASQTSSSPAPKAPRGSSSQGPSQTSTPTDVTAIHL

The next experiment has as its target CDK2/CCNE1 (Homo sapiens, UniProt P24941). The experiment in a line: CDK2 homogeneous time-resolved fluorescence (HTRF) kinase assay. Particulars: CDK2/CCNE. The method in brief:
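TR-FRET read-out (665 nm, or 665/615 ratio) of Eu-antibody detection of phospho-4E-BP1 (Thr37/46) ULight peptide. Enzyme 3 nM, ATP 1 mM, peptide 50 nM, 1% DMSO; 60 min reaction at 23 °C after 20 min compound preincubation. IC50 from 11-point half-log titrations, top typically 10 μM.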

The mark [1] stands for this setting: >250 nM, read-out: CDK6/CCND IC50, >250 nM.
Where [2] appears, read: >250 nM, read-out: CDK1/CCNB IC50 >250 nM.
The mark [3] stands for this setting: >250 nM, read-out: CDK4/CCND IC50, >250 nM.
The mark [4] stands for this setting: 25-250 nM, read-out: CDK2/CCNE IC50, 25-250 nM.
Where [5] appears, read: <25 nM, read-out: CDK2/CCNE IC50, <25 nM.
The mark [6] stands for this setting: 25-250 nM, read-out: CDK6/CCND IC50, 25-250 nM.
[7] abbreviates: 25-250 nM, read-out: CDK1/CCNB IC50, 25-250 nM.

Like-named read-outs stand apart in the source and are kept apart here.

CDK6/CCND1, sequence (Q00534 whole entry): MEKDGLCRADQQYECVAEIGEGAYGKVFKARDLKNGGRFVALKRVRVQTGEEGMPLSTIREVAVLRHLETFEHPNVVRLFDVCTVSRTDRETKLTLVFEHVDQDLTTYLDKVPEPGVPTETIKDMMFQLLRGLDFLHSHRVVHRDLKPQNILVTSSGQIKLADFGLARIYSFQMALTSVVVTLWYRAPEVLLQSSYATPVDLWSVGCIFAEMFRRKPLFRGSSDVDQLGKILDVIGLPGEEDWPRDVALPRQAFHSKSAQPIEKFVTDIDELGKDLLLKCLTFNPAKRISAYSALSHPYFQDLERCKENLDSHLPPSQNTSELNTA
CDK6/CCND1, sequence (P24385 whole entry partner): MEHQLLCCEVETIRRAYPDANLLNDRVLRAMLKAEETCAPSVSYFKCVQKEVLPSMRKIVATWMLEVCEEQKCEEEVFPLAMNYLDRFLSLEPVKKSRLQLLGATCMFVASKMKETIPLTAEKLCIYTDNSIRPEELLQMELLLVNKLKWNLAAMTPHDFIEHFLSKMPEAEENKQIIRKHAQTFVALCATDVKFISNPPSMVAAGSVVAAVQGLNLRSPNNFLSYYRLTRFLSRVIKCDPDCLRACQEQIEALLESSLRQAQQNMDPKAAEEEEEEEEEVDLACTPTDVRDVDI

Regarding `COc1ccc(NS(=O)(=O)c2ccc(Nc3cc4c(-c5ccc6c(cnn6CC(O)(C(F)(F)F)C(F)(F)F)c5C)nccc4cn3)cc2)cc1` [Ex 718, N-(4-methoxyphenyl)-4-((5-(4-methyl-1-(3,3,3-trifluoro-2-hydroxy-2-(trifluoromethyl)propyl)-1H-indazol-5-yl)-2,6-naphthyridin-3-yl)amino)benzenesulfonamide], the IC50 at CDK6/CCND1 (setting [1]) is more than 250 nM; at CDK1/CCNB1 (setting [2]) it was more than 250 nM; on CDK4/CCND3 (setting [3]) it was more than 250 nM; at CDK2/CCNE1 (setting [4]), 25 to 250 nM.

For the compound `COc1ccc(NS(=O)(=O)c2ccc(Nc3cc4c(-c5ccc6c(cnn6CC(O)(C(F)(F)F)C(F)(F)F)c5C)nccc4cn3)cc2)nc1` [Ex 719, N-(5-methoxypyridin-2-yl)-4-((5-(4-methyl-1-(3,3,3-trifluoro-2-hydroxy-2-(trifluoromethyl)propyl)-1H-indazol-5-yl)-2,6-naphthyridin-3-yl)amino)benzenesulfonamide], the IC50 at CDK6/CCND1 (setting [1]) was more than 250 nM; at CDK1/CCNB1 (setting [2]), more than 250 nM; on CDK4/CCND3 (setting [3]) it was more than 250 nM; at CDK2/CCNE1 (setting [4]) it was 25 to 250 nM.

Consider `Cc1c(-c2nccc3cnc(Nc4ccc(S(=O)(=O)Nc5cccc(C(F)(F)F)n5)cc4)cc23)ccc2c1cnn2CC(O)(C(F)(F)F)C(F)(F)F` [Ex 720, 4-((5-(4-methyl-1-(3,3,3-trifluoro-2-hydroxy-2-(trifluoromethyl)propyl)-1H-indazol-5-yl)-2,6-naphthyridin-3-yl)amino)-N-(6-(trifluoromethyl)pyridin-2-yl)benzenesulfonamide], for which the IC50 at CDK6/CCND1 (setting [1]) was more than 250 nM; on CDK1/CCNB1 (setting [2]) it was more than 250 nM; at CDK4/CCND3 (setting [3]) it was more than 250 nM; on CDK2/CCNE1 (setting [4]), 25 to 250 nM.

As for `CC[C@H](C)NS(=O)(=O)c1ccc(Nc2cc3c(-c4ccc5c(cnn5CC(C)(C)O)c4C)nccc3cn2)cc1` [Ex 722, (S)-N-(sec-butyl)-4-((5-(1-(2-hydroxy-2-methylpropyl)-4-methyl-1H-indazol-5-yl)-2,6-naphthyridin-3-yl)amino)benzenesulfonamide], the IC50 was more than 250 nM on CDK6/CCND1 (setting [1]), more than 250 nM on CDK1/CCNB1 (setting [2]), more than 250 nM at CDK4/CCND3 (setting [3]) and less than 25 nM on CDK2/CCNE1 (setting [5]).

On to `Cc1c(-c2nccc3cnc(Nc4ccc(S(N)(=O)=O)cc4)cc23)ccc2c1cnn2CC(O)(C(F)(F)F)C(F)(F)F` [Ex 726, 4-((5-(4-methyl-1-(3,3,3-trifluoro-2-hydroxy-2-(trifluoromethyl)propyl)-1H-indazol-5-yl)-2,6-naphthyridin-3-yl)amino)benzenesulfonamide], for which the IC50 was 25 to 250 nM at CDK6/CCND1 (setting [6]), 25 to 250 nM on CDK1/CCNB1 (setting [7]), more than 250 nM at CDK4/CCND3 (setting [3]) and less than 25 nM at CDK2/CCNE1 (setting [5]).

In the case of `Cc1c(-c2nccc3cnc(Nc4ccc(S(=O)(=O)Nc5ncccn5)cc4)cc23)ccc2c1cnn2CC(O)(C(F)(F)F)C(F)(F)F` [Ex 727, 4-((5-(4-methyl-1-(3,3,3-trifluoro-2-hydroxy-2-(trifluoromethyl)propyl)-1H-indazol-5-yl)-2,6-naphthyridin-3-yl)amino)-N-(pyrimidin-2-yl)benzenesulfonamide], the IC50 on CDK6/CCND1 (setting [1]) was more than 250 nM; on CDK1/CCNB1 (setting [2]), more than 250 nM; on CDK4/CCND3 (setting [3]), more than 250 nM; at CDK2/CCNE1 (setting [5]), less than 25 nM.

`Cc1c(-c2nccc3cnc(Nc4ccc(S(=O)(=O)Nc5ccccc5)cc4)cc23)ccc2c1cnn2CC(O)(C(F)(F)F)C(F)(F)F` [Ex 728, 4-((5-(4-methyl-1-(3,3,3-trifluoro-2-hydroxy-2-(trifluoromethyl)propyl)-1H-indazol-5-yl)-2,6-naphthyridin-3-yl)amino)-N-phenylbenzenesulfonamide]: the IC50 on CDK6/CCND1 (setting [1]) is more than 250 nM; at CDK1/CCNB1 (setting [2]), more than 250 nM; on CDK4/CCND3 (setting [3]), more than 250 nM; at CDK2/CCNE1 (setting [4]), 25 to 250 nM.

As to `Cc1c(-c2nccc3cnc(Nc4ccc(S(=O)(=O)NCc5ccccc5)cc4)cc23)ccc2c1cnn2CC(O)(C(F)(F)F)C(F)(F)F` [Ex 729, N-benzyl-4-((5-(4-methyl-1-(3,3,3-trifluoro-2-hydroxy-2-(trifluoromethyl)propyl)-1H-indazol-5-yl)-2,6-naphthyridin-3-yl)amino)benzenesulfonamide], the IC50 at CDK6/CCND1 (setting [1]) was more than 250 nM; at CDK1/CCNB1 (setting [2]), more than 250 nM; at CDK4/CCND3 (setting [3]), more than 250 nM; at CDK2/CCNE1 (setting [4]) it was 25 to 250 nM.

On to `Cc1c(-c2nccc3cnc(Nc4ccc(S(=O)(=O)NCc5ccccc5)cc4)cc23)ccc2c1cnn2CC(C)(C)O` [Ex 730, N-benzyl-4-((5-(1-(2-hydroxy-2-methylpropyl)-4-methyl-1H-indazol-5-yl)-2,6-naphthyridin-3-yl)amino)benzenesulfonamide], for which the IC50 at CDK6/CCND1 (setting [1]) is more than 250 nM; at CDK1/CCNB1 (setting [2]), more than 250 nM; at CDK4/CCND3 (setting [3]), more than 250 nM; at CDK2/CCNE1 (setting [5]) it was less than 25 nM.

As to `CCN(c1ncccn1)S(=O)(=O)c1ccc(Nc2cc3c(-c4ccc5c(cnn5CC(O)(C(F)(F)F)C(F)(F)F)c4C)nccc3cn2)cc1` [Ex 731, N-ethyl-4-((5-(4-methyl-1-(3,3,3-trifluoro-2-hydroxy-2-(trifluoromethyl)propyl)-1H-indazol-5-yl)-2,6-naphthyridin-3-yl)amino)-N-(pyrimidin-2-yl)benzenesulfonamide], the IC50 at CDK6/CCND1 (setting [1]) is more than 250 nM; on CDK1/CCNB1 (setting [2]), more than 250 nM; on CDK4/CCND3 (setting [3]), more than 250 nM; at CDK2/CCNE1 (setting [4]) it was 25 to 250 nM.

As for `Cc1c(-c2nccc3cnc(Nc4ccc(S(=O)(=O)N(C)c5ncccn5)cc4)cc23)ccc2c1cnn2CC(C)(C)O` [Ex 734, 4-((5-(1-(2-hydroxy-2-methylpropyl)-4-methyl-1H-indazol-5-yl)-2,6-naphthyridin-3-yl)amino)-N-methyl-N-(pyrimidin-2-yl)benzenesulfonamide], the IC50 at CDK6/CCND1 (setting [6]) was 25 to 250 nM; at CDK1/CCNB1 (setting [7]), 25 to 250 nM; at CDK4/CCND3 (25-250 nM, read-out: CDK4/CCND IC50, 25-250 nM) it was 25 to 250 nM; at CDK2/CCNE1 (setting [5]) it was less than 25 nM.

With `COc1cccc(NS(=O)(=O)c2ccc(Nc3cc4c(-c5ccc6c(cnn6CC(O)(C(F)(F)F)C(F)(F)F)c5C)nccc4cn3)cc2)n1` [Ex 735, N-(6-methoxypyridin-2-yl)-4-((5-(4-methyl-1-(3,3,3-trifluoro-2-hydroxy-2-(trifluoromethyl)propyl)-1H-indazol-5-yl)-2,6-naphthyridin-3-yl)amino)benzenesulfonamide], the IC50 on CDK6/CCND1 (setting [1]) was more than 250 nM; at CDK1/CCNB1 (setting [2]), more than 250 nM; at CDK4/CCND3 (setting [3]), more than 250 nM; on CDK2/CCNE1 (setting [4]), 25 to 250 nM.

For `Cc1cc(C)nc(NS(=O)(=O)c2ccc(Nc3cc4c(-c5ccc6c(cnn6CC(O)(C(F)(F)F)C(F)(F)F)c5C)nccc4cn3)cc2)n1` [Ex 736, N-(4,6-dimethylpyrimidin-2-yl)-4-((5-(4-methyl-1-(3,3,3-trifluoro-2-hydroxy-2-(trifluoromethyl)propyl)-1H-indazol-5-yl)-2,6-naphthyridin-3-yl)amino)benzenesulfonamide], the IC50 on CDK6/CCND1 (setting [1]) is more than 250 nM; at CDK1/CCNB1 (setting [2]), more than 250 nM; at CDK4/CCND3 (setting [3]) it was more than 250 nM; at CDK2/CCNE1 (setting [5]) it was less than 25 nM.

As for `COc1ccnc(NS(=O)(=O)c2ccc(Nc3cc4c(-c5ccc6c(cnn6CC(O)(C(F)(F)F)C(F)(F)F)c5C)nccc4cn3)cc2)n1` [Ex 737, N-(4-methoxypyrimidin-2-yl)-4-((5-(4-methyl-1-(3,3,3-trifluoro-2-hydroxy-2-(trifluoromethyl)propyl)-1H-indazol-5-yl)-2,6-naphthyridin-3-yl)amino)benzenesulfonamide], the IC50 is more than 250 nM on CDK6/CCND1 (setting [1]), more than 250 nM on CDK1/CCNB1 (setting [2]), more than 250 nM on CDK4/CCND3 (setting [3]) and less than 25 nM on CDK2/CCNE1 (setting [5]).

As to `Cc1c(-c2nccc3cnc(Nc4ccc(S(=O)(=O)Nc5cccc(N6CCOCC6)c5)cc4)cc23)ccc2c1cnn2CC(O)(C(F)(F)F)C(F)(F)F` [Ex 738, 4-((5-(4-methyl-1-(3,3,3-trifluoro-2-hydroxy-2-(trifluoromethyl)propyl)-1H-indazol-5-yl)-2,6-naphthyridin-3-yl)amino)-N-(3-morpholinophenyl)benzenesulfonamide], the IC50 on CDK6/CCND1 (setting [1]) was more than 250 nM; at CDK1/CCNB1 (setting [2]), more than 250 nM; at CDK4/CCND3 (setting [3]) it was more than 250 nM; on CDK2/CCNE1 (setting [4]), 25 to 250 nM.

(Values after patent US20260325533A1, “CDK INHIBITOR COMPOUNDS” (ALEKSIA THERAPEUTICS, INC., priority 2023, published 2026).)
